According to ChEMBL document CHEMBL6127100, “Plant based steroidal and triterpenoid sapogenins: Chemistry on diosgenin and biological aspects” (Eur J Med Chem, 2024):
Values belong to the molecule of their own block, whether it stands above or below them.

What was measured:
HeLa [1] = test: Antiproliferative activity against human HeLa cells assessed as reduction in cell growth; format: functional, cell-based
BT-474 = test: Cytotoxicity against human BT-474 cells; format: functional, cell-based
DU-145 [2] = test: Cytotoxicity against human DU-145 cells; format: functional, cell-based
U-937 [3] = test: Antiproliferative activity against human U-937 cells assessed as inhibition of cell growth incubated for 72 hrs by cell-titer glo assay; format: functional, cell-based; conditions: U-937, 72 h
CCRF-CEM = test: Cytotoxicity against human CCRF-CEM cells; format: functional, cell-based
U-937 [4] = test: Cytotoxicity against human U-937 cells; format: functional, cell-based
MDA-MB-231 [5] = test: Cytotoxicity against human MDA-MB-231 cells; format: functional, cell-based
MCF7 [6] = test: Cytotoxicity against human MCF7 cells assessed as reduction in cell viability incubated for 24 hrs by MTT assay; format: functional, cell-based; conditions: MCF7, 24 h
HeLa [7] = test: Cytotoxicity against human HeLa cells assessed as reduction in cell viability incubated for 24 hrs by MTT assay; format: functional, cell-based
HeLa [8] = test: Growth inhibition of human HeLa cells; format: functional
MCF7 [9] = test: Cytotoxicity against human MCF7 cells assessed as reduction in cell growth incubated for 48 hrs by SRB assay; format: functional, cell-based; conditions: MCF7, 48 h
FaDu [10] = test: Antiproliferative activity against human FaDu cells; format: functional, cell-based
RAW264.7 [11] = test: Antiinflammatory activity in LPS-induced mouse RAW264.7 cells assessed as inhibition of IL-6 production pretreated for 1 hr followed by LPS stimulation and measured after 3 hrs by ELISA; format: functional; parameters: scale not given: the % may be the effect or the level left; conditions: time 4 hrs
DLD-1 [12] = test: Cytotoxicity against human DLD-1 cells; format: functional, cell-based
FaDu [13] = test: Cytotoxicity against human FaDu cells assessed as reduction in cell growth incubated for 48 hrs by SRB assay; format: functional, cell-based
DU-145 [14] = test: Cytotoxicity against human DU-145 cells assessed as reduction in cell growth incubated for 48 hrs by SRB assay; format: functional, cell-based; conditions: DU-145, 48 h
RAW264.7 [15] = test: Anti-inflammatory activity in mouse RAW264.7 cells assessed as inhibition of LPS-induced TNFalpha production preincubated for 1 hr followed by LPS addition and measured after 24 hrs by ELISA; format: functional; parameters: scale not given: the % may be the effect or the level left; conditions: time 25 hrs
DU-145 [16] = test: Antiproliferative activity against human DU-145 cells; format: functional, cell-based
A549 [17] = test: Cytotoxicity against human A549 cells; format: functional, cell-based
MCF7 [18] = test: Cytotoxicity against human MCF7 cells; format: functional, cell-based
DLD-1 [19] = test: Cytotoxicity against human DLD-1 cells assessed as reduction in cell growth incubated for 48 hrs by SRB assay; format: functional, cell-based; conditions: DLD-1, 48 h
A549 [20] = test: Cytotoxicity against human A549 cells assessed as reduction in cell growth incubated for 48 hrs by SRB assay; format: functional, cell-based; conditions: A549, 48 h
HepG2 [21] = test: Antiproliferative activity against human HepG2 cells assessed as reduction in cell growth; format: functional, cell-based
MDA-MB-231 [22] = test: Cytotoxicity against human MDA-MB-231 cells assessed as reduction in cell viability incubated for 24 hrs by MTT assay; format: functional, cell-based; conditions: MDA-MB-231, 24 h
RAW264.7 [23] = test: Anti-inflammatory activity in LPS-induced mouse RAW264.7 cells assessed as inhibition of IL-6 production at by ELISA; format: functional; parameters: scale not given: the % may be the effect or the level left
Jurkat = test: Cytotoxicity against human Jurkat cells assessed as reduction in cell viability incubated for 24 hrs by MTT assay; format: functional, cell-based
RAW264.7 [24] = test: Anti-inflammatory activity in LPS-induced mouse RAW264.7 cells assessed as reduction in TNF-alpha production at by ELISA; format: functional; parameters: scale not given: the % may be the effect or the level left
T47D = test: Antiproliferative activity against human T47D cells assessed as inhibition of cell growth incubated for 48 hrs by tryphan blue dye based assay; format: functional
HeLa [25] = test: Antiproliferative activity against human HeLa cells assessed as inhibition of cell growth incubated for 48 hrs by tryphan blue dye based assay; format: functional
A549 [26] = test: Antiproliferative activity against human A549 cells assessed as inhibition of cell growth incubated for 48 hrs by tryphan blue dye based assay; format: functional; conditions: A549, 48 h
SW1573 = test: Antiproliferative activity against human SW1573 cells assessed as inhibition of cell growth incubated for 48 hrs by tryphan blue dye based assay; format: functional; conditions: SW1573, 48 h
WiDr = test: Antiproliferative activity against human WiDr cells assessed as inhibition of cell growth incubated for 48 hrs by tryphan blue dye based assay; format: functional
HBL = test: Antiproliferative activity against human HBL cells assessed as inhibition of cell growth incubated for 48 hrs by tryphan blue dye based assay; format: functional
HepG2 [27] = test: Antiproliferative activity against human HepG2 cells assessed as reduction in cell viability incubated for 48 hrs by MTT assay; format: functional, cell-based; conditions: HepG2, 48 h
T98G = test: Antiproliferative activity against human T98G cells assessed as inhibition of cell growth incubated for 72 hrs by celltiter-glo assay; format: functional, cell-based
A549 [28] = test: Anticancer activity against human A549 cells assessed as inhibition of cell growth incubated for 48 hrs by MTT assay; format: functional, cell-based; conditions: A549, 48 h
PC-9 = test: Anticancer activity against human PC-9 cells assessed as inhibition of cell growth incubated for 48 hrs by MTT assay; format: functional, cell-based; conditions: PC-9, 48 h
HeLa [29] = test: Antiproliferative activity against human HeLa cells assessed as reduction in cell growth by MTT assay; format: functional, cell-based

Structure (SMILES): CC(=O)O[C@H]1CC[C@@]2(C)C(=CC[C@H]3[C@@H]4C[C@@H]5O[C@H](CC[C@@H](C)CO)[C@@H](C)[C@@H]5[C@@]4(C)CC[C@@H]32)C1
IC50 (MCF7 [6]): 11 µM | IC50 (HeLa [7]): 11.4 µM

Structure (SMILES): CC(=O)O[C@@H]1C=C2/C(=N/O)C[C@H]3[C@@H]4C[C@@H]5OC(=O)[C@@H](C)[C@@H]5[C@@]4(C)CC[C@@H]3[C@@]2(C)CC1
IC50 (BT-474): 14.1 µM | IC50 (DU-145 [2]): 7.81 µM | GI50 (HeLa [8]): 17 µM

Structure (SMILES): CC(=O)O[C@H]1CC[C@@]2(C)C(=CC[C@H]3[C@@H]4C[C@@H]5O[C@H](CC[C@@H](C)COC(=O)N6CCN(C)CC6)[C@@H](C)[C@@H]5[C@@]4(C)CC[C@@H]32)C1
IC50 (MDA-MB-231 [22]): 13.5 µM | Activity (RAW264.7 [23]): 49% | IC50 (Jurkat): 15.8 µM | Activity (RAW264.7 [24]): 33.66%

Structure (SMILES): CC(CCC[C@H](C)[C@H]1[C@@H](O)C[C@H]2[C@@H]3CC=C4C[C@@H](O)CC[C@]4(C)[C@H]3CC[C@]12C)C[Se]C#N (stereo partly specified)
IC50 (T47D): 3.2 µM | IC50 (HeLa [25]): 3.3 µM | IC50 (A549 [26]): 1.7 µM | IC50 (SW1573): 2.2 µM | IC50 (WiDr): 5.5 µM | IC50 (HBL): 2.2 µM

Structure (SMILES): C[C@H]1CO[C@@]2(O[C@H]3C[C@H]4[C@@H]5/C(=N/CCCCC(=O)O)C=C6C[C@@H](O)CC[C@]6(C)[C@H]5CC[C@]4(C)[C@H]3[C@@H]2C)/C(=N/O)C1
Activity (RAW264.7 [11]): 23.3% | Activity (RAW264.7 [15]): 47.7%

Structure (SMILES): CC(=O)OC[C@H](C)CCC(=O)[C@@H](C)[C@H]1[C@@H](OC(C)=O)C[C@H]2[C@@H]3CC=C4C[C@H](N=[N+]=[N-])CC[C@]4(C)[C@H]3CC[C@]12C
IC50 (HeLa [29]): 11.8 µM

Second part, led by results:

IC50 (HeLa [1]): 16 µM
Structure (SMILES): Cc1ccc2c(n1)C(=O)C(Cl)C(O[C@H]1CC[C@@]3(C)C(=CC[C@H]4[C@@H]5C[C@@H]6O[C@]7(CC[C@@H](C)CO7)[C@@H](C)[C@@H]6[C@@]5(C)CC[C@@H]43)C1)C2=O (stereo partly specified)

IC50 (U-937 [3]): 8.22 µM
Structure (SMILES): C[C@@H]1CC[C@@]2(OC1)O[C@H]1C[C@H]3[C@@H]4CC(n5cc(-c6ccccc6)nn5)C5(O)C[C@@H](O)CC[C@]5(C)[C@H]4CC[C@]3(C)[C@H]1[C@@H]2C (stereo partly specified)
IC50 (BT-474): 13.2 µM | IC50 (DU-145 [2]): 7.9 µM | IC50 (CCRF-CEM): 3.9 µM | IC50 (U-937 [4]): 7.9 µM | IC50 (MDA-MB-231 [5]): 3.32 µM

IC50 (DU-145 [16]): 12.8 µM
Structure (SMILES): C[C@H]1CO[C@@]2(O[C@H]3C[C@H]4[C@@H]5/C(=N/CCCCCCC(=O)O)C=C6C[C@@H](O)CC[C@]6(C)[C@H]5CC[C@]4(C)[C@H]3[C@@H]2C)/C(=N/O)C1
IC50 (MCF7 [9]): 15.6 µM | IC50 (FaDu [10]): 15.2 µM | Activity (RAW264.7 [11]): 19.73% | IC50 (DLD-1 [12]): 14.6 µM | IC50 (FaDu [13]): 16.6 µM | IC50 (DU-145 [14]): 16.6 µM | Activity (RAW264.7 [15]): 41.72% | IC50 (A549 [17]): 15.8 µM | IC50 (MCF7 [18]): 15.8 µM | IC50 (DLD-1 [19]): 16 µM | IC50 (A549 [20]): 17.1 µM

IC50 (HepG2 [21]): 17.5 µM
Structure (SMILES): C[C@@H]1CC[C@@]2(OC1)O[C@H]1C[C@H]3[C@@H]4CC=C5C[C@@H](OC6=C(Cl)C(=O)c7ccccc7C6=O)CC[C@]5(C)[C@H]4CC[C@]3(C)[C@H]1[C@@H]2C

IC50 (HepG2 [27]): 19 µM
Structure (SMILES): C[C@@H]1CC[C@@]2(OC1)O[C@H]1C[C@H]3[C@@H]4CC=C5C[C@@H](OC(=O)[C@@H](N)CCCNC(=N)N)CC[C@]5(C)[C@H]4CC[C@]3(C)[C@H]1[C@@H]2C

IC50 (U-937 [3]): 5.41 µM
Structure (SMILES): COc1ccc(-c2cn(C3C[C@H]4[C@@H]5C[C@@H]6O[C@]7(CC[C@@H](C)CO7)[C@@H](C)[C@@H]6[C@@]5(C)CC[C@@H]4[C@@]4(C)CC[C@H](O)CC34O)nn2)cc1 (stereo partly specified)
IC50 (BT-474): 4.3 µM | IC50 (DU-145 [2]): 19.8 µM | IC50 (T98G): 11.4 µM | IC50 (MDA-MB-231 [5]): 5.78 µM

IC50 (A549 [28]): 5.1 µM | IC50 (PC-9): 8.7 µM
Structure (SMILES): C[C@@H]1CC[C@@]2(OC1)O[C@H]1C[C@H]3[C@@H]4CCC5(OC#N)C[C@@H](O)CC[C@]5(C)[C@H]4CC[C@]3(C)[C@H]1[C@@H]2C (stereo partly specified)
